According to patent US4857549A, “Antitumor compounds” (priority 1988, dated 1989):
“And” between values parts separate entries of the source, which are not always exact repeats. Equal values may be shown once. Read-outs that look alike come from different tables or passages of the source.

Key:
[1] = system: Breast tumor; details: Table 3, Breast; response = ≤50% survival of tumor colony forming units
Source text: (§4) Tumor Specimens: Specimens were collected using asceptic technique and transported in medium containing Penicillin, Streptomycin, and Amphotericin B. Specimens which could not be immediately processed were minced into fragments 5 mm^3 or smaller, prior to transport. Effusions were collected with ten units of preservative free heparin per ml of effusion. Specimens were processed to obtain cell suspensions as soon as possible after removal from the patient.
(§5) Culture Methods: A two-layer soft agar culture system was used in these studies. […] Cell counts were performed on a hemacytometer after lysis of erythrocytes in acetic acid. A total of 500,000 nucleated cells were plated in a volume of 1 ml (0.3 percent agar) over 1 ml base layers (0.6 percent agar) in each culture. Cultures were incubated in humidified 37° C. incubators with an atmosphere of 5 percent CO2 in air and control plates monitored for growth using an inverted microscope. At the time of maximum colony formation (7-21 days in culture) final colony counts were obtained with a Bausch and Lomb FAS II image analysis system. Objects presenting a circular profile in two dimensions with a minimum diameter of 60 μm were scored as colonies by the system.
(§6) Drug Treatment: A total of six untreated or vehicle treated cultures were plated for determination of control growth in each experiment. […]

[2] = system: Kidney tumor; details: Table 3, Kidney; response = ≤50% survival of tumor colony forming units
Source text: as §4, §5, §6

[3] = system: Corpus uterus tumor; details: Table 3, Corpus uterus; response = ≤50% survival of tumor colony forming units
Source text: as §4, §5, §6

[4] = system: human tumor colony forming units; experiment: human tumor cloning assay (all tumor types); format: cell-based
Description: The cytotoxic activity of Compound No. 2 from TABLE A, namely μ-[1,2-bis(diphenylphosphino)ethane]bis-[chlorogold (I)], was also determined in a human tumor cloning assay. This procedure is described as follows:
[Salmon, et al., N. Engl. J. Med., 298:1321 (1978)].

[5] = system: B16 melanoma cells (highly metastatic subline, F10); experiment: B16 melanoma in vitro cloning (colony forming) assay, 2 hour exposure; format: cell-based; details: read-out: IC50: concentration which inhibits cloning efficiency of B16 melanoma cells by 50%
Description: Initially, the cytotoxic activity of the Formula (I) and Formula (IA) compounds used in the pharmaceutical compositions and methods of treatment of the instant invention was evaluated in vitro using B16 melanoma cells according to the following assay:
B16 melanoma (highly metastatic subline, F10) are used and maintained as monolayer cultures in Minimal Essential Media (Grand Island Biological Co., Grand Island, N.Y. ) supplemented with 10% calf serum, 1% antibiotics in a 5% CO2 humidified incubator at 37° C. Asynchronous populations of cells are harvested and replated to 5000 cells/plate in sterile 60 mm×15 mm petri plates. Plates are incubated overnight to allow attachment of the cells to the plate. Cells are treated with a Formula (I) or Formula (IA) compound or cisplatin under sterile conditions, allowed to react for 2 hours followed by aspiration of medium. Plates are washed one time with 5 ml of phosphate buffered saline (PBS), followed by the addition of 5 ml of fresh media. Plates are incubated for 5 days at 37° in a CO2 incubator. Viability is measured by the ability of a cell to form a colony of greater than 50 cells. Colonies are fixed with 0.5% crystal violet in 95% ethanol. Plates are dried and counted with a Biotran III Automatic Count Totalizer (New Brunswick Scientific Co., Edison, N.J.). Mean and standard deviation of triplicate samples are determined for each drug concentration. The data are analyzed by plotting the log of the survival fraction (number of colonies in drug treated plates/number of colonies in controls) versus the drug concentration.
^(a) concentration which inhibits cloning efficiency of B16 melanoma
cells by 50% on a 2hour exposure.

[6] = system: Lung tumor; details: Table 3, Lung; response = ≤50% survival of tumor colony forming units
Source text: as §4, §5, §6

[7] = system: B16 melanoma; experiment: in vivo ip B16 melanoma assay
Description: (§7) The cytotoxic activity of several compounds of Formula (I) was evaluated in vivo using B16 melanoma cells according to the following assay:
(§8) In this system, groups of eight B6D2F1 mice are inoculated ip with 0.5 ml of a 10% (w:v) brei of B16 melanoma prepared from pooled sc tumors excised at 14.noteq.21 days from C67B1 /6 donor mice. Daily treatment is begun 24 hours after tumor implantation and is continued daily for 10 days. The route of drug administration is ip. The mice are monitored daily for survival for 60 days. Antitumor activity is assessed by prolongation of median survival time.

[8] = system: Unknown primary tumor; details: Table 3, Unknown primary; response = ≤50% survival of tumor colony forming units
Source text: as §4, §5, §6

[9] = system: Melanoma; details: Table 3, Melanoma; response = ≤50% survival of tumor colony forming units
Source text: as §4, §5, §6

[10] = system: ADJ-PC6 Plasmacytoma; experiment: ADJ-PC6 plasmacytoma assay
Description: (§1) Tumor cells are carried by serial sc passage in BALB/c female mice and then collected aseptically on ca. Day 21 and minced in Hank's balanced salt solution. The cells are then dispersed by homogenization in a loose-fitting teflon glass homogenizer, and cell concentration is adjusted to 4×10^6 viable ([…]) cells per ml by hemocytometer counts. A total of 0.5 ml (2×10^6 cells) is implanted sc on the right flank of BALB/c female mice in groups of 8. Treatment is given ip on Days 1-10, and tumors are measured in perpendicular diameters with a vernier caliper on Day 18.
(§2) ^(b) maximally tolerated dose for BALB/c female mice on an ip qD

[11] = system: M5076 reticulum cell sarcoma; experiment: ip M5076 reticulum cell sarcoma assay in mice; details: for MTD (maximally tolerated dose): B6D2F1 female mice; for MTD (maximally tolerated dose) / ILS max (maximum increase in lifespan): ip qD × 10; for ILS max (maximum increase in lifespan): ip M5076 sarcoma mice, slash = separate experiments
Description: Another chemosensitive tumor model is intraperitoneally (ip) implanted M5076 reticulum cell sarcoma in mice. In this system B6D2F1 female mice are inoculated with 0.5 ml of a 10 percent weight:volume (w:v) brei of M5076 prepared from pooled subcutaneous (sc) tumors excised at about 21 days from c57B1/6 donor mice. Drugs are administered ip. Daily treatment is begun 24 hours after implantation and is continued for ten days. The treatment regimen for M5076 is more prolonged than for P388 because of the slower growth rate and longer control survival time of the M5076 tumor.

[12] = system: P388 leukemia
[13] = system: Ovary tumor; details: Table 3, Ovary; response = ≤50% survival of tumor colony forming units
Source text: as §4, §5, §6

[14] = system: mammary adenocarcinoma 16/c; experiment: sc mammary adenocarcinoma 16/c assay
Description: (§9) The mammary adenocarcinoma 16/c tumor is implanted sc in C3H mice, and the Formula (I) compound is administered ip on days 1, 5, 9, 13 and 17. Tumors are measured 3 weeks after implantation, and activity is assessed by degree of tumor growth inhibition.

[15] = in vivo ip B16 melanoma assay; details: mouse, in vivo, ip
Description: as §7, §8

[16] = in vivo; details: mouse, ip
[17] = ip Lewis Lung tumor assay; format: in vivo; parameters: ILS: dose or concentration left out as unconfirmed; details: in vivo; q4D×4 regimen
Source text: (§3) The protocol for carrying out this tumor assay is well known to those of skill in the art.

[18] = system: Lewis Lung tumor; experiment: ip Lewis Lung tumor assay; format: in vivo; parameters: ILS: dose or concentration left out as unconfirmed; details: at MTD of […] mg/kg, q4D×4 regimen
Source text: as §3

[19] = ADJ-PC6 plasmacytoma assay; details: mouse, in vivo, ip
Description: as §1, §2

[20] = system: Madison 109 lung carcinoma; experiment: ip Madison 109 lung carcinoma tumor assay; details: at MTD of 16 mg/kg, q4D×4 regimen
[21] = ip Madison 109 lung carcinoma tumor assay; details: in vivo
[22] = system: cells; details: Struck et al., J. Med. Chem. (1966); cited from earlier work
[23] = sc mammary adenocarcinoma 16/c assay; details: mouse, in vivo
Description: as §9

[24] = Table 1, ≤30% survival of tumor colony forming units, 10 μg/ml, continuous exposure
[25] = Table 1, ≤50% survival of tumor colony forming units, 10 μg/ml, continuous exposure
[26] = Table 3, all tumor types, response = ≤50% survival of tumor colony forming units

[Cl][Au][PH](CC[PH]([Au][Cl])(c1ccccc1)c1ccccc1)(c1ccccc1)c1ccccc1 [Compound 2, μ-[1,2-bis(diphenylphosphino)ethane]bis-[chlorogold (I)]]
# responses/# evaluable [1]: 1/3 | # responses/# evaluable [2]: 2/2 | # responses/# evaluable [3]: 1/1 | # responses ≤30%/# evaluable [4, 24]: 6/19 | responses ≤30% (% of evaluable) [4, 24]: 32% | # responses ≤50%/# evaluable [4, 25]: 11/19 | responses ≤50% (% of evaluable) [4, 25]: 58% | # responses/# evaluable, TOTALS [4, 26]: 11/19 | responses, TOTALS (% of evaluable) [4, 26]: 58% | in vitro cytotoxic activity against primary human tumor cells ([4]; in words): substantial in vitro cytotoxic activity | IC50 ([5]; Table A, Formula (I)): 8 µM | # responses/# evaluable [6]: 1/3 | MTD (maximally tolerated dose) ([7]; Table E, B6D2F1 mice, ip qD × 10): 5 um/kg | # responses/# evaluable [8]: 2/3 | # responses/# evaluable [9]: 0/1 | % Inhibition of tumor growth ([10]; Table G, ip days 1-10, tumors measured day 18, slash = separate experiments): 96% and 93% | antitumor activity in ADJ-PC6 Plasmacytoma ([10]; in words, based on Table G): excellent antitumor activity | MTD (maximally tolerated dose) ([11]; Table C): 4 mg/kg | ILS max (maximum increase in lifespan) ([11]; Table C, compound 2: seven experiments): 76 ± 30% | activity in the ip M5076 reticulum cell sarcoma assay ([11]; in words, based on Tables C and D): good activity | MTD (maximally tolerated dose) ([12]; Table B, B6D2F1 female mice, ip qD × 5): 6 mg/kg | # responses/# evaluable [13]: 4/6 | MTD (maximally tolerated dose) ([14]; Table F, C3H mice, intermittent ip regimen): 9 um/kg

c1ccc(P(CCP(c2ccccc2)c2ccccc2)c2ccccc2)cc1 [Compound 33, bis(1,2-diphenylphosphino)-ethane]
IC50 ([5]; Mus musculus, B16, Table AI, Formula (IA)): 60 µM | ILS ([7]; at MTD of 5 mg/kg, three separate experiments, listed as Compound No. 2 from Table BI, 5 mg/kg): 64% and 49% and 39% | MTD [15]: 5 mg/kg | MTD [16]: 16 mg/kg | MTD [17]: 12 mg/kg | ILS [18]: 69% | MTD ([10]; one experiment): 6 mg/kg | tumor growth inhibition ([10]; one experiment, at MTD of 6 mg/kg): 94% | tumor growth inhibition ([10]; second experiment, at MTD of 4 mg/kg): 49% | MTD [19]: 4 mg/kg | MTD (maximally tolerated dose) ([11]; Table D): 6 mg/kg | ILS max (maximum increase in lifespan) ([11]; Table D): 70% and 96% and 68% | ILS (maximum increase in lifespan) ([12]; Table BI, ip P388 leukemia mice, ip days 1-5, slash-separated figures are separate experiments, compound 33: 41 experiments): 98 ± 26% | ILS [20]: 50% | MTD [21]: 16 mg/kg | alleged cytotoxic activity [22]: alleged cytotoxic activity | MTD ([23]; ip): 30 mg/kg | MTD ([23]; iv): 32 mg/kg | tumor inhibition ([14]; iv, at MTD of 32 mg/kg): 95%
